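Grown in 96-well plates, cells were treated for 48 hours with each compound at five concentrations. Insufficient inhibition: endpoint recorded as highest concentration tested. GI50: concentration for 50% inhibition of growth. The concentration for full growth arrest is given as TGI.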
What was measured:
Assay in all cases: NCI anticancer screen, dose series, 48 h
SF-295 CNS = tested on: SF-295 CNS
A498 renal = tested on: A498 renal
HL-60(TB) leukemia = tested on: HL-60(TB) leukemia
IGROV1 ovarian = tested on: IGROV1 ovarian
DU-145 prostate = tested on: DU-145 prostate
RPMI-8226 leukemia = tested on: RPMI-8226 leukemia
PC-3 prostate = tested on: PC-3 prostate
OVCAR-4 ovarian = tested on: OVCAR-4 ovarian
BT-549 breast = tested on: BT-549 breast
MDA-MB-231 breast = tested on: MDA-MB-231 breast
SR leukemia = tested on: SR leukemia
HT29 colon = tested on: HT29 colon
RXF 393 renal = tested on: RXF 393 renal
U251 CNS = tested on: U251 CNS
NCI-H23 lung = tested on: NCI-H23 lung
SNB-19 CNS = tested on: SNB-19 CNS
HCC-2998 colon = tested on: HCC-2998 colon
K-562 leukemia = tested on: K-562 leukemia
EKVX NSCLC = tested on: EKVX NSCLC
SF-539 CNS = tested on: SF-539 CNS
OVCAR-5 ovarian = tested on: OVCAR-5 ovarian
MCF7 breast = tested on: MCF7 breast
HCT-15 colon = tested on: HCT-15 colon
UACC-62 melanoma = tested on: UACC-62 melanoma
SN12C renal = tested on: SN12C renal
LOX IMVI melanoma = tested on: LOX IMVI melanoma
OVCAR-3 ovarian = tested on: OVCAR-3 ovarian
OVCAR-8 ovarian = tested on: OVCAR-8 ovarian
786-0 renal = tested on: 786-0 renal
MOLT-4 leukemia = tested on: MOLT-4 leukemia
SK-MEL-2 melanoma = tested on: SK-MEL-2 melanoma
HCT-116 colon = tested on: HCT-116 colon
T-47D breast = tested on: T-47D breast
CCRF-CEM leukemia = tested on: CCRF-CEM leukemia
TK-10 renal = tested on: TK-10 renal
SK-MEL-28 melanoma = tested on: SK-MEL-28 melanoma
COLO 205 colon = tested on: COLO 205 colon
ACHN renal = tested on: ACHN renal
MALME-3M melanoma = tested on: MALME-3M melanoma
MDA-MB-435 = tested on: MDA-MB-435
UACC-257 melanoma = tested on: UACC-257 melanoma
SF-268 CNS = tested on: SF-268 CNS
A549 NSCLC = tested on: A549 NSCLC
SK-OV-3 ovarian = tested on: SK-OV-3 ovarian
M14 melanoma = tested on: M14 melanoma
UO-31 renal = tested on: UO-31 renal
SNB-75 CNS = tested on: SNB-75 CNS
HOP-62 NSCLC = tested on: HOP-62 NSCLC
NCI-H522 lung = tested on: NCI-H522 lung
CAKI-1 renal = tested on: CAKI-1 renal
NCI-H226 lung = tested on: NCI-H226 lung
HS 578T breast = tested on: HS 578T breast
SW-620 colon = tested on: SW-620 colon
KM12 colon = tested on: KM12 colon
NCI/ADR-RES ovarian = tested on: NCI/ADR-RES ovarian

## CN(c1ccc(Br)cc1)S(=O)(=O)c1ccc(-c2cnc(C3CC3)o2)cc1
SF-295 CNS
  GI50: 71.2 nM
  TGI: > 100000 nM
A498 renal
  GI50: 50 nM
  TGI: 700 nM
HL-60(TB) leukemia
  GI50: 32.6 nM
  TGI: 142 nM
IGROV1 ovarian
  GI50: 253 nM
  TGI: > 100000 nM
DU-145 prostate
  GI50: 375 nM
  TGI: > 100000 nM
RPMI-8226 leukemia
  GI50: 209 nM
  TGI: 2470 nM
PC-3 prostate
  GI50: 121 nM
  TGI: > 100000 nM
OVCAR-4 ovarian
  GI50: 774 nM
  TGI: > 100000 nM
BT-549 breast
  GI50: 2960 nM
  TGI: > 100000 nM
MDA-MB-231 breast
  GI50: 480 nM
  TGI: > 27400 nM
SR leukemia
  GI50: 48.5 nM
  TGI: > 100000 nM
HT29 colon
  GI50: 210 nM
  TGI: > 100000 nM
RXF 393 renal
  GI50: 85.9 nM
  TGI: 403 nM
U251 CNS
  GI50: 324 nM
  TGI: > 100000 nM
NCI-H23 lung
  GI50: 393 nM
  TGI: > 100000 nM
SNB-19 CNS
  GI50: 271 nM
  TGI: > 100000 nM
HCC-2998 colon
  GI50: 299 nM
  TGI: > 100000 nM
K-562 leukemia
  GI50: 41.9 nM
  TGI: > 100000 nM
EKVX NSCLC
  GI50: 454 nM
  TGI: > 100000 nM
SF-539 CNS
  GI50: 142 nM
  TGI: 2700 nM
OVCAR-5 ovarian
  GI50: 524 nM
  TGI: > 100000 nM
MCF7 breast
  GI50: 45.1 nM
  TGI: > 100000 nM
HCT-15 colon
  GI50: 60.3 nM
  TGI: > 100000 nM
UACC-62 melanoma
  GI50: 65.8 nM
  TGI: > 100000 nM
SN12C renal
  GI50: 1030 nM
  TGI: > 100000 nM
LOX IMVI melanoma
  GI50: 93.9 nM
  TGI: > 100000 nM
OVCAR-3 ovarian
  GI50: 109 nM
  TGI: 5270 nM
OVCAR-8 ovarian
  GI50: 597 nM
  TGI: > 100000 nM
786-0 renal
  GI50: 397 nM
  TGI: > 100000 nM
MOLT-4 leukemia
  GI50: 286 nM
  TGI: > 100000 nM
SK-MEL-2 melanoma
  GI50: 1340 nM
  TGI: > 100000 nM
HCT-116 colon
  GI50: 129 nM
  TGI: > 100000 nM
T-47D breast
  GI50: 839 nM
  TGI: > 100000 nM
CCRF-CEM leukemia
  GI50: 86.2 nM
  TGI: > 100000 nM
TK-10 renal
  GI50: > 64400 nM
  TGI: > 100000 nM
SK-MEL-28 melanoma
  GI50: 9450 nM
  TGI: > 100000 nM
COLO 205 colon
  GI50: 370 nM
  TGI: > 100000 nM
ACHN renal
  GI50: 677 nM
  TGI: > 100000 nM
MALME-3M melanoma
  GI50: 3840 nM
  TGI: > 100000 nM
MDA-MB-435
  GI50: 30.9 nM
  TGI: 111 nM
UACC-257 melanoma
  GI50: > 53300 nM
  TGI: > 100000 nM
SF-268 CNS
  GI50: 1160 nM
  TGI: > 100000 nM
A549 NSCLC
  GI50: 321 nM
  TGI: > 100000 nM
SK-OV-3 ovarian
  GI50: 5330 nM
  TGI: > 100000 nM
M14 melanoma
  GI50: 156 nM
  TGI: > 100000 nM
UO-31 renal
  GI50: 880 nM
  TGI: > 100000 nM
SNB-75 CNS
  GI50: 114 nM
  TGI: > 52100 nM
HOP-62 NSCLC
  GI50: 412 nM
  TGI: > 100000 nM
NCI-H522 lung
  GI50: 374 nM
  TGI: > 100000 nM
CAKI-1 renal
  GI50: 84.6 nM
  TGI: > 100000 nM
NCI-H226 lung
  GI50: 284 nM
  TGI: 7520 nM
HS 578T breast
  GI50: 279 nM
  TGI: > 100000 nM
SW-620 colon
  GI50: 82.7 nM
  TGI: > 100000 nM
KM12 colon
  GI50: 225 nM
  TGI: > 100000 nM
NCI/ADR-RES ovarian
  GI50: 73.2 nM
  TGI: > 40700 nM
